Measurements from US5451584A, “N-alkynyl carboxamides as sertonergic agents” (American Home Products Corporation, priority 1994, dated 1995).

How the values were obtained:
[1] = target: T1, 5-HT1A serotonin receptor (Rattus norvegicus, UniProt P19327); settings: buspirone, standard for anxiolytic activity; cited from earlier work
T1 construct: from tissue; inferred from the cited Hall et al. 1985 procedure
T1 sequence (P19327 1-422): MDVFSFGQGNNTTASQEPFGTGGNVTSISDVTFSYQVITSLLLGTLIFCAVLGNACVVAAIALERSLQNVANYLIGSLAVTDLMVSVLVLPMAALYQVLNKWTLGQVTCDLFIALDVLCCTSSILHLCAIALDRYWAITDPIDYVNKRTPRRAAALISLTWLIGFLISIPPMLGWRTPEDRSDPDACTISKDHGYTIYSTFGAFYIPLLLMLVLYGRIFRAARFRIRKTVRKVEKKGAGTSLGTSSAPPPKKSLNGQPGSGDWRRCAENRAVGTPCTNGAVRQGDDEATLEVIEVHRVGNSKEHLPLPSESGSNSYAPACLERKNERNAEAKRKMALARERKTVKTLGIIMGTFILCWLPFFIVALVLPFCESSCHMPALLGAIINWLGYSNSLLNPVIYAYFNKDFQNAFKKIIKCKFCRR

[2] = target: T1, 5-HT1A serotonin receptor; test: displacement of [^3 H] 8-OHDPAT (dipropylaminotetralin) from the 5-HT1A serotonin receptor; settings: procedure of Hall et al., read-out: 5-HT1A Binding (IC50)
Experimental: The compounds of this invention are prepared by conventional methods. For example, the appropriately substituted "acid" is transformed in the presence of a coupling agent like N,N-bis(2-oxo-3-oxazolidinyl)phosphoramidic chloride to yield the desired products ( 1 ). [drawing 3] High affinity for the serotonin 5-HT1A receptor was established by testing the claimed compound's ability to displace [^3 H] 8-OHDPAT (dipropylaminotetralin) from the 5-HT1A serotonin receptor following the procedure of Hall et al., J. Neurochem. 44, 1685 (1985). […] The anxiolytic activity of buspirone is believed to be, at least partially, due to its 5-HT1A receptor affinity (Vander Maclen et al., Eur. J. Pharmacol. 1986, 129 (1-2) […]).

Row | IC50 [2] | Structure (SMILES) | affinity for the 5-HT1A serotonin receptor subtype (in words) [1]
1 | – | O=C1CC2(CCCC2)CC(=O)N1CCCCN1CCN(c2ncccn2)CC1 [buspirone] | potent affinity
2 | 0.0449 µM | C#CCNC(=O)C(CCN1CCN(c2ccccc2OC)CC1)c1ccccc1 (stereo not drawn) [Example 1, 4-[4-(2-Methoxy-phenyl)-piperazin-1]-2-phenyl-N-prop-2-ynyl-butyramide] | –
3 | 0.0194 µM | C#CCN(C)C(=O)C(CCN1CCN(c2ccccc2OC)CC1)c1ccccc1 (stereo not drawn) [Example 2, 4-[4-(2-Methoxy-phenyl)-piperazin-1-yl]-N-methyl-2-phenyl-N-prop-2-ynyl-butyramide] | –
